Like-named read-outs stand apart in the source and are kept apart here.
How the values were obtained:
DAT, SERT or NET = assay: Binding and reuptake inhibition in HEK cells containing DAT, SERT or NET (overall statement); format: cell-based, human; conditions: for transporter inhibition potency: DAT, SERT, NET binding and reuptake
Protocol: The data cannot be directly compared with Table 1 because the compounds of Table 3 were mixtures of diastereomers and isomers at all centers of chirality.
Transporter Binding Assays. […] Cells were scraped from plates and centrifuged for […] at 30,000×g and the pellet was re-suspended in 0.32 M sucrose with a Polytron at a setting of 1 for 5 sec. […] Membranes were pre-incubated with test compounds for […] before addition of [^125I]RTI-55. […] The incubations were done in the dark and terminated by filtration onto a Whatman GF/C filters using a 96-well Tomtech cell harvester (Tomtech, Orange, Conn.). Scintillation fluid was added to each filter spot and radioactivity remaining on the filter was determined using a Wallace β-plate reader (Wallace Labs, Cranbury, N.J.).

rodent PDE4 = assay: Inhibition of rodent PDE4 (rolipram binding sites); conditions: Table 4
Protocol: IC50 values for inhibitor interaction with this site were calculated by nonlinear regression analysis of competition curves for unlabeled PDE4 inhibitors; Ki values were determined according to the method of Cheng and Prusoff (1973). […] Competition curves for the PDE4 inhibitors were subjected to nonlinear regression analysis and IC50 values with which the inhibitors bind to each of the binding sites was determined; K1 values were determined according to the method of Cheng and Prusoff (1973).

human PDE4D3 = biological target: T1, human PDE4D3 (Homo sapiens, UniProt Q08499); assay: Inhibition of cAMP hydrolysis by recombinant human PDE4D3; format: biochemical
T1 construct: made in house; host or cells: Cos 7 cells (construct and cells a gift from Dr. Conti, Stanford)
T1 sequence (Q08499 1-673 isoform Q08499-2): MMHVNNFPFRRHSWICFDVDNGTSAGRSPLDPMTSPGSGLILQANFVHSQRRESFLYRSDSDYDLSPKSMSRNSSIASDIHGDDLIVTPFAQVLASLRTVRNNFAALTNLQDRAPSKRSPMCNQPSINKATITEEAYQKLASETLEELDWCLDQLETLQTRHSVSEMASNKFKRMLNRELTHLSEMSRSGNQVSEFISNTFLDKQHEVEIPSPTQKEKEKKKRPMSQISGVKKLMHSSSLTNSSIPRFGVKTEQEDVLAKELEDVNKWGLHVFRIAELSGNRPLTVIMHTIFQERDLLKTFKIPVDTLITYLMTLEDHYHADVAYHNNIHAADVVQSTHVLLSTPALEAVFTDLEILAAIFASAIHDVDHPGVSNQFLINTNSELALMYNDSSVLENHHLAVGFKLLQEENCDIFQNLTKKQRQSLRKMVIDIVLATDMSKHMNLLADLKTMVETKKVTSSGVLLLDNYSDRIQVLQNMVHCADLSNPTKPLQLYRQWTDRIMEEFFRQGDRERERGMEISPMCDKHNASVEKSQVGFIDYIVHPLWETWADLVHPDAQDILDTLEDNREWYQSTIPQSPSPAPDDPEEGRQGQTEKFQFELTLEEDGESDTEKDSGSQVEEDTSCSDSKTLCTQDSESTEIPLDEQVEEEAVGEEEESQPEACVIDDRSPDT
Protocol: The PDE construct was transfected into Cos 7 cells in round culture dish (100×20 mm). The cells were then harvested and homogenized with lysis buffer. The crude homogenate was spun at maximum speed in a microfuge. The supernatant fluid was saved as an extract. […] The PDE construct and Cos 7 cells were a kind gift from Dr. Conti at the Stanford University School of Medicine.
(§1) PDE4 enzyme assays were carried out as described previously. Studies with recombinant PDE4 enzymes were carried out in the laboratory of Professor Marco Conti (Stanford University, Palo Alto, Calif.).

[1] = Mouse liver microsome stability assay; format: in vitro ADME
Protocol: A typical assay mixture contained either mouse or rat liver microsomes (0.5 mg of protein), […] potassium phosphate buffer (pH 7.4), 40 μM test compounds, 0.5 mM NADP+, 0.5 mM glucose-6-phosphate, 5 IU/mL glucose-6-phosphate dehydrogenase, 1 mg/mL diethylenetriaminepentaacetic acid (DETAPAC) and 5 mM MgCl2 in a final incubation volume of 0.1 mL. After 0, 10, 25, 40 and […], the incubations were stopped by the addition of 1 ml CH2Cl2/2-propanol (3:1 v:v). The mixture was centrifuged at 12,000×g for 1 min, and the organic layer was separated from the aqueous fraction. The organic fraction was evaporated with a stream of argon and the residue was taken up in methanol (200 μL) and injected into the HPLC system described above.
(§2) Microsomal incubations (final volume 0.25 mL) with the SSRIs, dual PDE4 inhibitor/SSRIs or PDE4 inhibitor was done with an HPLC assay as described above. Diluted stocks of either mouse, human or rat liver microsomes (0.5 mg of protein), […] potassium phosphate buffer (pH 7.4), 0.5 mM NADI)^+, 0.5 mM glucose-6-phosphate, 5 IU/mL glucose-6-phosphate dehydrogenase, 0.6 mM DETAPAC, and 3 mM MgC12 were combined and placed on ice. For a metabolic stability assay, either vehicle or 40 μM test compound was added and the incubation was initiated at 37° C. with constant shaking. After 0, 10, 25, 40 and 60 min, the incubations were stopped by the addition of 1 mL CH2Cl2/2-propanol (3:1, v:v). After thorough mixing, the organic layer was separated from the aqueous portion by centrifugation at 12,000×g. The organic material was evaporated with a stream of argon. The residue was dissolved in methanol (200 μL) and the sample was analyzed by HPLC.

[2] = Human liver microsome stability assay; format: in vitro ADME; conditions: for half-life at 40 μM: human, liver microsomes, pH 7.4, Table 16, read-out: HLM t1/2
Protocol: as §2

ICR mice = assay: Forced-swim test in ICR mice; format: in vivo, mouse
Protocol: Forty male ICR mice, weighed 26.2±0.3 g, were housed in a temperature-controlled room (22-23° C.) and maintained on a 12-hour on 12-hour off light cycle (lights on at 6:00 AM). Water and food were freely available in the home cages. […] Saline containing the same percentage of DMSO was used as vehicle. The lower doses were tested followed by the larger doses 1 week later, when the mice were again randomly divided into four groups as described above. The forced-swim test (FST) was carried out as described previously. Mice were given a swimming pretest session, once a day for two successive days. Twenty-four hours after the last session, mice were injected vehicle or the lower dose of each test compound by the i.p. route 30 min prior to the FST. One week later, administration of the larger dose of each of the test compounds was repeated. During the pretest and test sessions, each mouse was placed for 6 min in a plastic cylinder (45 cm high×20 cm diameter), which was filled to a depth of 28 cm with water (23±1° C.). The duration of immobility, which was defined as floating in an upright position without additional activity other than that necessary for the animal to keep its head above water, was recorded.

human PDE4A1 = biological target: T2, human PDE4A1 (Homo sapiens, UniProt P27815); assay: Inhibition of cAMP hydrolysis by recombinant human PDE4A1; format: biochemical
T2 construct: made in house
T2 sequence (P27815 1-647 isoform P27815-4): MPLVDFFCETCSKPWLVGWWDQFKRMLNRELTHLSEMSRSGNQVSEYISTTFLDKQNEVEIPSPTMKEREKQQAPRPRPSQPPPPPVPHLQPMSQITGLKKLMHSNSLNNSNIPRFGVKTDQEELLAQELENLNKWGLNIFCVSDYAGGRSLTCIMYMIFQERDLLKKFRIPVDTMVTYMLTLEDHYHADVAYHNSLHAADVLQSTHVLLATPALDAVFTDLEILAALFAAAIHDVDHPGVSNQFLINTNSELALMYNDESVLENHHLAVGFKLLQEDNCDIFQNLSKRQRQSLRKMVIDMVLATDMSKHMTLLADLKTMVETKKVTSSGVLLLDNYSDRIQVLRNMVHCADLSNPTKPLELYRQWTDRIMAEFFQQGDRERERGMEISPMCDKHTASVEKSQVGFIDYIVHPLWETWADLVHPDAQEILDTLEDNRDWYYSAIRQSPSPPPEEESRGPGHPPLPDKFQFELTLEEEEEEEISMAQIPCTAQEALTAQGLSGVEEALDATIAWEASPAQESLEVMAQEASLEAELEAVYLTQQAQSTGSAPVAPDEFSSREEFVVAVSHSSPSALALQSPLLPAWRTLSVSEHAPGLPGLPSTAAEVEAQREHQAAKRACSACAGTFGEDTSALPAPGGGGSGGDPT
Protocol: as §1

human PDE4B3 = biological target: T3, human PDE4B3 (Homo sapiens, UniProt Q07343); assay: Inhibition of cAMP hydrolysis by recombinant human PDE4B3; format: biochemical; conditions: Example 29
T3 construct: made in house
T3 sequence (Q07343 1-721 isoform Q07343-3): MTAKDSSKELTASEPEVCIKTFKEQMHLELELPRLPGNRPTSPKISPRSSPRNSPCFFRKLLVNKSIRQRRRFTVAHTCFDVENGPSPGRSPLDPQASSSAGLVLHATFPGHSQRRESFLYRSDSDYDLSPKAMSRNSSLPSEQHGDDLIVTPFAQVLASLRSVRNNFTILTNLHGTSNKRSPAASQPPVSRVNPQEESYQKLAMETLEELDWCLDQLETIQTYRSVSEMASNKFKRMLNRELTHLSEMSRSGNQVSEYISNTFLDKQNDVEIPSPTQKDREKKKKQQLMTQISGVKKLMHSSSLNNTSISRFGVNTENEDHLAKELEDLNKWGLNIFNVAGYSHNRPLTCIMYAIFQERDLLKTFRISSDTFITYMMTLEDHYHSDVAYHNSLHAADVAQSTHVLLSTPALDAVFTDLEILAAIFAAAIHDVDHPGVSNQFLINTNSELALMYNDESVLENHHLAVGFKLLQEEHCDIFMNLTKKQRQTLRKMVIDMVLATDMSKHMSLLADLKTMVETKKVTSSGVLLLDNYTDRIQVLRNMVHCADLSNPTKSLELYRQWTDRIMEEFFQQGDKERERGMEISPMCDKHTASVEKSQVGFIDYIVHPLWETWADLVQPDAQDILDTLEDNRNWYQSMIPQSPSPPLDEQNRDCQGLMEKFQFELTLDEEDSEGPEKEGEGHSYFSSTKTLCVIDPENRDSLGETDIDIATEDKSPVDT
Protocol: as §1

mice = assay: Morris water maze test; format: in vivo, mouse; conditions: 3 mg/kg, compared to control mice
Protocol: Compounds 19 and 115 were tested in a Morris water maze test. The escape latency (time to climb onto a hidden platform) for each mouse was recorded as a memory test. […] Compared to a group of control mice, compound 19 and 115 caused a 30% improvement in memory at 3 mg/kg. […] This is not completely unexpected as SSRIs often require repeated dosing to see a large and significant effect. […] Multiple dosing likely will increase the efficacy of the compounds tested.

Swiss-Webster mice = assay: animal or person; format: in vivo, mouse
Protocol: A time course/dose response study of cocaine-induced locomotor stimulation was conducted beginning Feb. 21, 2000, according to a locomotor activity studies time course protocol. […]. A panel of infrared beams (16 beams) and corresponding photodetectors were located in the horizontal direction along the sides of each activity chamber. A 7.5-W incandescent light above each chamber provided dim illumination. Fans provided an 80-dB ambient noise level within the chamber. […]. In all studies, horizontal activity (interruption of photocell beams) was measured for 8 hours within 10-min periods, beginning at 0800 hrs (2 hours after lights on). Testing was conducted with one mouse per activity chamber.
. Behavioral observations were recorded on each mouse at 30, 120 and 480 minutes following 100 mg/kg compound 31,646.

Balb/c mice = assay: Forced-swim test in Balb/c mice; format: in vivo, mouse; conditions: for duration of immobility, forced-swim test, acute: i.p. 30 min prior, fluoxetine 20 mg/kg, test compounds 10 mg/kg
Protocol: The study was conducted according to a standard operation procedure and in accordance with all Federal regulations. Water and food were freely available in the home cages. […] Mice were given a swimming pretest session, once a day for two successive days. […] During the pretest and test sessions, each mouse was placed for […] in a plastic cylinder (45 cm high×20 cm diameter), which was filled to a depth of 28 cm with water (23±1° C.). The duration of immobility, which was defined as floating in an upright position without additional activity other than that necessary for the animal to keep its head above water, was recorded. For the subchronic administration tests, the animals were separated as above and vehicle or chemicals were given by i.p. administration 23, 5 and 1 hr before the FST. The subchronic experiments were done similar to the study described above except for the pretest training that was not carried out.
Mice in the first session were treated with vehicle or the drugs acutely, whereas mice in the second sessions were treated subchronically, i.e., vehicle or drugs were given i.p. 23, 5, and 1 hr before the FST. The experiment was performed similar to Experiment 1 except for the pretest training, which was not carried out in the second session.

[3] = Example 29, read-out: Ki, human PDE4A1
[4] = Table 14, read-out: Human PDE4A1 Ki
[5] = Example 29, read-out: Ki, human PDE4D3

Compound: 2-(5-Bromo-pentyl)-4-(3,4-dimethoxy-phenyl-4a,5,8,8a-tetrahydro-2H-phthalazin-1-one [Compound 20]
- transporter inhibition potency (DAT, SERT or NET): no transporter inhibition potency

Compound: COc1ccc(C2=NNC(=O)C3CC=CCC23)cc1OC (racemic) [Compound 19, 4-(3,4-Dimethoxy-phenyl)-4a,5,8,8a-tetrahydro-2H-phthalazin-1-one, reference compound]
- pIC50 (rodent PDE4): 6.7
- Ki (human PDE4D3; Table 5, recombinant human PDE 4D3, read-out: Ki): 6.3 nM
- transporter inhibition potency (DAT, SERT or NET): no transporter inhibition potency

Compound: COc1ccc(C2=NNC(=O)[C@@H]3CC=CC[C@H]23)cc1OC (racemic) [Compound 19, 4-(3,4-Dimethoxy-phenyl)-4a,5,8,8a-tetrahydro-2H-phthalazin-1-one, reference compound]
- half life, mouse liver microsomes ([1]; NADPH): 3.52 h
- MLM t1/2 ([1]; Table 16): 3.522 h
- half-life at 40 μM [2]: > 1 h
- immobility, forced-swim test, acute, higher dose (ICR mice; 3 mg/kg i.p., vs vehicle, P<0.05): significantly reduced immobility
- duration of immobility, forced-swim test, acute (ICR mice; 0.3 and 3 mg/kg i.p.): decreased duration of immobility in a dose-dependent manner
- Ki (human PDE4A1; [3]): > 1000 nM
- Ki (human PDE4A1; [4]): < 1000 nM
- Ki (human PDE4B3): 250 nM
- PDE4A1/PDE4D3 inhibitory selectivity ratio (human PDE4D3): < 159 fold
- PDE4B3/PDE4D3 inhibitory selectivity ratio (human PDE4D3): 40 fold
- Ki (human PDE4D3; [5]): 6.3 nM
- improvement in memory (escape latency) (mice): 30%
- effect on RTI-55 binding or reuptake at any transporter (DAT, SERT or NET; hDAT, hSERT, hNET): essentially no measurable effect

Compound: COC(=O)[C@H]1[C@@H](OC(=O)c2ccccc2)C[C@@H]2CC[C@H]1N2C [Cocaine, reference compound]
- onset of stimulant effects after injection (Swiss-Webster mice; 10 and 20 mg/kg): ≤ 10 min
- ED50 (Swiss-Webster mice; Mus musculus, IP, 0-30 min, read-out: ED50 (dose producing 1/2 maximal stimulant activity)): 5.8 mg/kg
- dose at maximum horizontal activity (Swiss-Webster mice; estimated from fitted curve): 23.4 mg/kg
- maximum horizontal activity (Swiss-Webster mice; estimated from fitted curve, 0-30 min): 5520 counts/10 min

Compound: COc1ccc(F)cc1CCC1CCC(CCN)O1 (stereo not drawn) [Compound 14, 2-Aminoethyl-5-(2′-methoxy-5′-fluorophenethyl)tetrahydrofuran]
- half life, mouse liver microsomes ([1]; NADPH): 0.933 h
- MLM t1/2 ([1]; Table 16): 0.933 h
- immobility, forced-swim test, acute (ICR mice; 10 and 30 mg/kg i.p.): tended to decrease immobility, but it was not statistically significant
- immobility, forced-swim test, subchronic (Balb/c mice; i.p. 23, 5 and 1 hr prior, fluoxetine 10 mg/kg, 18k/l or 14 10 mg/kg, 21 1 mg/kg): did not change immobility
- duration of immobility, forced-swim test, acute (Balb/c mice): did not markedly alter the duration of immobility

Compound: COc1ccc(F)cc1CCCC1CCC(CCN)O1 (stereo not drawn) [Compound 15, 2-Aminoethyl-5-(3′-(2″-methoxy-5″-fluorophenyl)-1′-propyl)tetrahydrofuran]
- duration of immobility, forced-swim test, acute (Balb/c mice): did not markedly alter the duration of immobility

Compound: COc1ccc(F)c(CCCC2CCC(CCNCCCCCN3N=C(c4ccc(OC)c(OC)c4)C4CC=CC[C@H]4C3=O)O2)c1 (stereo partly drawn) [Compound 22]
- pIC50 (rodent PDE4): 6.3
- metabolism in mouse liver microsomes ([1]; NADPH, up to 60 min): No detectable metabolic instability
- half-life at 40 μM ([1]; mouse, liver microsomes, pH 7.4, Table 16, read-out: MLM t1/2): > 1 h
- metabolism in human liver microsomes ([2]; NADPH, up to 60 min): No detectable metabolic instability
- half-life at 40 μM [2]: > 1 h
- Ki (human PDE4A1; [3]): > 1000 nM
- Ki (human PDE4A1; [4]): < 1000 nM
- Ki (human PDE4B3): 500 nM
- Ki (human PDE4D3; [5]): 1.2 nM

Compound: NCCC1CCC(CCc2ccccc2)O1 (stereo not drawn) [Compound 54, 2-(Aminoethyl)-5-(phenethyl)tetrahydrofuran]
- other behavioral observations (Swiss-Webster mice; 100 mg/kg, 30, 120 and 480 minutes): No unusual effects were observed
- onset of depressant effects after injection (Swiss-Webster mice; 30 and 100 mg/kg): ≤ 10 min
- ID50 (dose producing 1/2 maximal depressant activity) (Swiss-Webster mice; IP, 0-30 min after injection): 39.8 mg/kg
- CNS stimulation (Swiss-Webster mice; mouse, in vivo): did not cause CNS stimulation

Compound: COc1ccc(F)cc1CCC1CCC(CCNCCCCCN2N=C(c3ccc(OC)c(OC)c3)C3CC=CC[C@H]3C2=O)O1 (stereo partly drawn) [Compound 115]
- improvement in memory (escape latency) (mice): 30%

Compound: COc1ccc(C2CNC(=O)C2)cc1OC1CCCC1 (stereo not drawn) [Rolipram, reference compound]
- forced-swim test behavior, acute (ICR mice; 0.5 mg/kg): did not alter FST behavior
